Experimental data reported in PubChem BioAssay AID1963973 (Molecular Pharmacology Branch, DTP, NCI, 2024).

Tested on: 883617-216-R-J1-PDC tumor spheroids, viability
Assay: Anticancer human tumor 883617-216-R-J1-PDC patient-derived bladder carcinoma cell line growth inhibition [PI3K]
Settings: spheroids with HUVEC and MSC; for IC50: curve of first compound; for viability, T/C: stronger effect = lower value
How it was run: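 Multi-cell spheroids combine tumor cells with HUVEC and human MSCs, treated with targeted agents alone or with inavolisib, alpelisib, duvelisib or copanlisib. Concentrations fall in half-log steps from at or near clinical Cmax, or from 10 microM where Cmax is unknown; viability read-out.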

[1] = second compound 0.00316 µM, first compound 0.0316 µM
[2] = second compound 0.00316 µM, first compound 0.1 µM
[3] = second compound 0.00316 µM, first compound 0.316 µM
[4] = second compound 0.00316 µM, first compound 1 µM
[5] = second compound 0.00316 µM, first compound 3.16 µM
[6] = second compound 0.00316 µM, first compound 10 µM
[7] = second compound 0.01 µM, first compound 0.0316 µM
[8] = second compound 0.01 µM, first compound 0.1 µM
[9] = second compound 0.01 µM, first compound 0.316 µM
[10] = second compound 0.01 µM, first compound 1 µM
[11] = second compound 0.01 µM, first compound 3.16 µM
[12] = second compound 0.01 µM, first compound 10 µM
[13] = second compound 0.0316 µM, first compound 0.0316 µM
[14] = second compound 0.0316 µM, first compound 0.1 µM
[15] = second compound 0.0316 µM, first compound 0.316 µM
[16] = second compound 0.0316 µM, first compound 1 µM
[17] = second compound 0.0316 µM, first compound 3.16 µM
[18] = second compound 0.0316 µM, first compound 10 µM
[19] = second compound 0.1 µM, first compound 0.0316 µM
[20] = second compound 0.1 µM, first compound 0.1 µM
[21] = second compound 0.1 µM, first compound 0.316 µM
[22] = second compound 0.1 µM, first compound 1 µM
[23] = second compound 0.1 µM, first compound 3.16 µM
[24] = second compound 0.1 µM, first compound 10 µM
[25] = second compound 0.316 µM, first compound 0.0316 µM
[26] = second compound 0.316 µM, first compound 0.1 µM
[27] = second compound 0.316 µM, first compound 0.316 µM
[28] = second compound 0.316 µM, first compound 1 µM
[29] = second compound 0.316 µM, first compound 3.16 µM
[30] = second compound 0.316 µM, first compound 10 µM
[31] = second compound 1 µM, first compound 0.0316 µM
[32] = second compound 1 µM, first compound 0.1 µM
[33] = second compound 1 µM, first compound 0.316 µM
[34] = second compound 1 µM, first compound 1 µM
[35] = second compound 1 µM, first compound 3.16 µM
[36] = second compound 1 µM, first compound 10 µM
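Also: spheroids exposed to agents for 7 days before the viability read.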

Cn1cnc2c(F)c(Nc3ccc(Br)cc3Cl)c(C(=O)NOCCO)cc21 + Cc1nc(NC(=O)N2CCCC2C(N)=O)sc1-c1ccnc(C(C)(C)C(F)(F)F)c1
IC50 (second compound 0.0316 µM): 49.5 nM | IC50 (second compound 0.1 µM): 22.4 nM | IC50 (second compound 0.316 µM): < 9.49 nM | IC50 (second compound 1 µM): < 9.49 nM | IC50 (second compound 3.16 µM): < 9.49 nM | IC50 (second compound 10 µM): < 9.49 nM | viability, T/C (second compound 0.0316 µM, first compound 0.00949 µM): 64.4% | viability, T/C (second compound 0.0316 µM, first compound 0.03 µM): 48.8% | viability, T/C (second compound 0.0316 µM, first compound 0.0949 µM): 41.5% | viability, T/C (second compound 0.0316 µM, first compound 0.3 µM): 44.2% | viability, T/C (second compound 0.0316 µM, first compound 0.949 µM): 30.8% | viability, T/C (second compound 0.0316 µM, first compound 3 µM): 19.5% | viability, T/C (second compound 0.1 µM, first compound 0.00949 µM): 62.3% | viability, T/C (second compound 0.1 µM, first compound 0.03 µM): 45.1% | viability, T/C (second compound 0.1 µM, first compound 0.0949 µM): 33.5% | viability, T/C (second compound 0.1 µM, first compound 0.3 µM): 27.7% | viability, T/C (second compound 0.1 µM, first compound 0.949 µM): 23.2% | viability, T/C (second compound 0.1 µM, first compound 3 µM): 15.9% | viability, T/C (second compound 0.316 µM, first compound 0.00949 µM): 41.4% | viability, T/C (second compound 0.316 µM, first compound 0.03 µM): 27.9% | viability, T/C (second compound 0.316 µM, first compound 0.0949 µM): 25.8% | viability, T/C (second compound 0.316 µM, first compound 0.3 µM): 20.7% | viability, T/C (second compound 0.316 µM, first compound 0.949 µM): 16.8% | viability, T/C (second compound 0.316 µM, first compound 3 µM): 9.49% | viability, T/C (second compound 1 µM, first compound 0.00949 µM): 18.6% | viability, T/C (second compound 1 µM, first compound 0.03 µM): 19% | viability, T/C (second compound 1 µM, first compound 0.0949 µM): 15.9% | viability, T/C (second compound 1 µM, first compound 0.3 µM): 14% | viability, T/C (second compound 1 µM, first compound 0.949 µM): 11.9% | viability, T/C (second compound 1 µM, first compound 3 µM): 4.92% | viability, T/C (second compound 3.16 µM, first compound 0.00949 µM): 11.2% | viability, T/C (second compound 3.16 µM, first compound 0.03 µM): 8.7% | viability, T/C (second compound 3.16 µM, first compound 0.0949 µM): 10.1% | viability, T/C (second compound 3.16 µM, first compound 0.3 µM): 7.89% | viability, T/C (second compound 3.16 µM, first compound 0.949 µM): 4.92% | viability, T/C (second compound 3.16 µM, first compound 3 µM): 2.19% | viability, T/C (second compound 10 µM, first compound 0.00949 µM): 4.41% | viability, T/C (second compound 10 µM, first compound 0.03 µM): 3.98% | viability, T/C (second compound 10 µM, first compound 0.0949 µM): 3.69% | viability, T/C (second compound 10 µM, first compound 0.3 µM): 3.12% | viability, T/C (second compound 10 µM, first compound 0.949 µM): 2.43% | viability, T/C (second compound 10 µM, first compound 3 µM): 1.07%

C[C@@H](NC(=O)c1ncnc(N)c1Cl)c1ncc(C(=O)Nc2cc(C(F)(F)F)c(Cl)cn2)s1 + CC(Nc1ccc2c(c1)OCCn1cc(N3C(=O)OCC3C(F)F)nc1-2)C(N)=O
IC50 (second compound 0.00316 µM): > 10000 nM | IC50 (second compound 0.01 µM): > 10000 nM | IC50 (second compound 0.0316 µM): 6340 nM | IC50 (second compound 0.1 µM): 366 nM | IC50 (second compound 0.316 µM): < 31.6 nM | IC50 (second compound 1 µM): < 31.6 nM | viability, T/C [1]: 86.3% | viability, T/C [2]: 78.3% | viability, T/C [3]: 88.9% | viability, T/C [4]: 99.8% | viability, T/C [5]: 80% | viability, T/C [6]: 70.8% | viability, T/C [7]: 81.2% | viability, T/C [8]: 89.4% | viability, T/C [9]: 74.6% | viability, T/C [10]: 86.2% | viability, T/C [11]: 70.6% | viability, T/C [12]: 63.6% | viability, T/C [13]: 72.2% | viability, T/C [14]: 73.6% | viability, T/C [15]: 65.3% | viability, T/C [16]: 58.8% | viability, T/C [17]: 55.4% | viability, T/C [18]: 47.1% | viability, T/C [19]: 42.4% | viability, T/C [20]: 49.2% | viability, T/C [21]: 61.8% | viability, T/C [22]: 42.3% | viability, T/C [23]: 36.7% | viability, T/C [24]: 32.3% | viability, T/C [25]: 26.1% | viability, T/C [26]: 22.4% | viability, T/C [27]: 26.1% | viability, T/C [28]: 27.4% | viability, T/C [29]: 27.7% | viability, T/C [30]: 17.9% | viability, T/C [31]: 18.2% | viability, T/C [32]: 15.2% | viability, T/C [33]: 16.3% | viability, T/C [34]: 16.9% | viability, T/C [35]: 16.6% | viability, T/C [36]: 12.5%

CC1(C)CCC(CN2CCN(c3ccc(C(=O)NS(=O)(=O)c4ccc(NCC5CCOCC5)c([N+](=O)[O-])c4)c(Oc4cnc5[nH]ccc5c4)c3)CC2)=C(c2ccc(Cl)cc2)C1 + COc1c(OCCCN2CCOCC2)ccc2c3n(c(=NC(=O)c4cnc(N)nc4)nc12)CCN3
IC50 (second compound 0.00316 µM): > 10000 nM | IC50 (second compound 0.01 µM): > 10000 nM | IC50 (second compound 0.0316 µM): < 31.6 nM | IC50 (second compound 0.1 µM): < 31.6 nM | IC50 (second compound 0.316 µM): < 31.6 nM | IC50 (second compound 1 µM): < 31.6 nM | viability, T/C [1]: 86.9% | viability, T/C [2]: 84.3% | viability, T/C [3]: 77.5% | viability, T/C [4]: 83.7% | viability, T/C [5]: 82.7% | viability, T/C [6]: 110% | viability, T/C [7]: 68% | viability, T/C [8]: 67.9% | viability, T/C [9]: 66.5% | viability, T/C [10]: 68.5% | viability, T/C [11]: 66.1% | viability, T/C [12]: 58.2% | viability, T/C [13]: 32.3% | viability, T/C [14]: 35.8% | viability, T/C [15]: 40.5% | viability, T/C [16]: 39.1% | viability, T/C [17]: 35.3% | viability, T/C [18]: 35.5% | viability, T/C [19]: 27.5% | viability, T/C [20]: 15.1% | viability, T/C [21]: 17% | viability, T/C [22]: 17.8% | viability, T/C [23]: 15.2% | viability, T/C [24]: 13.1% | viability, T/C [25]: 6.5% | viability, T/C [26]: 4.66% | viability, T/C [27]: 5.31% | viability, T/C [28]: 5.04% | viability, T/C [29]: 4.63% | viability, T/C [30]: 4.02% | viability, T/C [31]: 3.29% | viability, T/C [32]: 2.86% | viability, T/C [33]: 2.77% | viability, T/C [34]: 3.15% | viability, T/C [35]: 2.53% | viability, T/C [36]: 2.82%
